{"source": "patent US6344479B1", "about": "“Method of preventing retinopathy of prematurity in a neonate” (Farmacon-Il, LLC, priority 2001, dated 2002)", "key": {"prematurely born infants": {"test_system": "prematurely born infants", "assay": "Clinical study: development of retinopathy of prematurity (ROP) in premature neonates given NSAID", "assay_type": "in vivo, human", "details": "for Max ROP grades: data as means per treatment group; for ROP: No (number of neonates without ROP) / ROP: Yes (number of neonates with any ROP): data as numbers of neonates per treatment group, i.v. postnatal treatment, gestation no more than 31 weeks", "method": "A clinical study was carried out at the Neonatology Unit of University Hospital, Antwerp, Belgium.\nPatients and Methods: 229 prematurely born infants were included in the study. All infants were born after a gestation period of no more than 31 weeks and all infants survived for a period of at least 21 days. Prospective serial retinal observation were performed by pediatric ophthalmologist starting at a postmenstrual age of 33 weeks. Evaluation for ROP in both eyes included staging and extension of disease, zone of involvement, number of clock hours, and the presence of any additional disease."}, "mouse": {"test_system": "mouse", "details": "administered concurrently with the injury phase; normal growth not affected; cited from earlier work"}}, "data": [{"molecule": "CC(C)Cc1ccc(C(C)C(=O)O)cc1", "note": "(centres unmarked) [Ibuprofen, ibuprofen lysinate]", "values": [{"measurement": "Max ROP grades", "setting": "prematurely born infants", "value": 0.26, "unit": "units"}, {"measurement": "ROP: No (number of neonates without ROP)", "setting": "prematurely born infants", "value": 26}, {"measurement": "ROP: Yes (number of neonates with any ROP)", "setting": "prematurely born infants", "value": 5}, {"measurement": "Risk of developing ROP (in words)", "setting": "prematurely born infants; postnatal administration, independently of other studied neonatal risk factors", "value": "significantly reduced"}]}, {"molecule": "COc1ccc2c(c1)c(CC(=O)O)c(C)n2C(=O)c1ccc(Cl)cc1", "note": "[Indomethacin, indomethacin]", "values": [{"measurement": "Max ROP grades", "setting": "prematurely born infants", "value": 1, "unit": "units"}, {"measurement": "ROP: No (number of neonates without ROP)", "setting": "prematurely born infants", "value": 32}, {"measurement": "ROP: Yes (number of neonates with any ROP)", "setting": "prematurely born infants", "value": 30}, {"measurement": "Effect on oxygen-induced retinopathy (in words)", "setting": "mouse", "value": "improved oxygen-induced retinopathy"}]}]}
